ChEMBL document CHEMBL2321681, “Design, synthesis, and evaluation of imidazo[4,5-c]pyridin-4-one derivatives with dual activity at angiotensin II type 1 receptor and peroxisome proliferator-activated receptor-γ” (Bioorg Med Chem Lett, 2013)
Values after ≈ are worked out from the molar mass of the structure shown.

Legend:
[1] = biological target: T1, Peroxisome proliferator-activated receptor gamma (Homo sapiens, UniProt P37231); assay: Partial agonist activity at human PPARgamma-LBD/Gal4 DNA binding domain by transactivation assay
T1 sequence (P37231 whole entry): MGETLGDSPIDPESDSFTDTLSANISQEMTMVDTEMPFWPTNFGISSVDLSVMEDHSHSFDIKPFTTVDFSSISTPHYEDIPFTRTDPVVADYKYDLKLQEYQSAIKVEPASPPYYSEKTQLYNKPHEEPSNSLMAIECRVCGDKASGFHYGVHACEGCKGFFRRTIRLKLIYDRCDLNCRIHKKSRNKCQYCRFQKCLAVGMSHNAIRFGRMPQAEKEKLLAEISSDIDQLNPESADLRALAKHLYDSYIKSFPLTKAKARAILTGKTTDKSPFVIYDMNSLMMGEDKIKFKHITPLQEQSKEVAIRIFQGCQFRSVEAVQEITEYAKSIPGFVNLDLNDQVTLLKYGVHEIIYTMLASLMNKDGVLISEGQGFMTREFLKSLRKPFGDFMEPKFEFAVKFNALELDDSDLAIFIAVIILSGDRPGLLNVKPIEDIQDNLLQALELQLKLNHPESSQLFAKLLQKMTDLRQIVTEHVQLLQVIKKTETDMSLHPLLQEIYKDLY

[2] = biological target: T2, Type-1 angiotensin II receptor (Homo sapiens, UniProt P30556)
T2 sequence (P30556 whole entry): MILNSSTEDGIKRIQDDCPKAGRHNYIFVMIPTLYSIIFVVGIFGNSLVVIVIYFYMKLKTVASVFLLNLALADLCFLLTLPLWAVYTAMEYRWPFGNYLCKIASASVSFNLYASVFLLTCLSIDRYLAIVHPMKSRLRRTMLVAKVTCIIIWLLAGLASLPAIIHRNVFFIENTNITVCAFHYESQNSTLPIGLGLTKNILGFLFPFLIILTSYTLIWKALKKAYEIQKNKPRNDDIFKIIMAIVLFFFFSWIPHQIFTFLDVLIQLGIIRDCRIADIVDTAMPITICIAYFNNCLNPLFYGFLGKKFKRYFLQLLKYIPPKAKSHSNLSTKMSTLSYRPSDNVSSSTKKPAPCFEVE

Cytochrome P450 2D6 = Cytochrome P450 2D6 (Homo sapiens, UniProt P10635); assay: Inhibition of CYP2D6 (unknown origin); assay type: ADME
Cytochrome P450 3A4 = Cytochrome P450 3A4 (Homo sapiens, UniProt P08684); assay: Inhibition of CYP3A4 (unknown origin); assay type: ADME
[3] = Permeability of the compound by PAMPA; assay type: ADME; settings: read-out: permeability
[4] = Octanol-buffer distribution co-efficient, log D of the compound by shake-flask method; assay type: physicochemical
[5] = Intrinsic clearance in human liver microsomes
[6] = Kinetic solubility of the compound in potassium phosphate buffer at pH 6.5; assay type: physicochemical; settings: read-out: Kinetic_solubility
[7] = biological target: T3, Peroxisome proliferator-activated receptor delta (Homo sapiens, UniProt Q03181); assay: Agonist activity at PPARbeta (unknown origin)
T3 sequence (Q03181 whole entry): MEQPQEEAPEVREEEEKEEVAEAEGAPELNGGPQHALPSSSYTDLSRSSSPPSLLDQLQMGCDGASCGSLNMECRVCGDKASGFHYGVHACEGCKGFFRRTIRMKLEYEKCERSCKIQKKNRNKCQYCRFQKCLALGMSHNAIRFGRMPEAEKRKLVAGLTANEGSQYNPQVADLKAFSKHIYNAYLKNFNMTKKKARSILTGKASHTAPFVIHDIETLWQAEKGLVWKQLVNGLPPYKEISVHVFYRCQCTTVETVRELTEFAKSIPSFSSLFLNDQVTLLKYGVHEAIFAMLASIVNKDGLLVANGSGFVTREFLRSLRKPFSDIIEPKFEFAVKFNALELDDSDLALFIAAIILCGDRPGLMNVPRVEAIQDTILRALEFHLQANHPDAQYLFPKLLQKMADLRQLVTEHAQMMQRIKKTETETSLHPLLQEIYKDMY

[8] = biological target: T4, Peroxisome proliferator-activated receptor alpha (Homo sapiens, UniProt Q07869); assay: Agonist activity at PPARalpha (unknown origin)
T4 sequence (Q07869 whole entry): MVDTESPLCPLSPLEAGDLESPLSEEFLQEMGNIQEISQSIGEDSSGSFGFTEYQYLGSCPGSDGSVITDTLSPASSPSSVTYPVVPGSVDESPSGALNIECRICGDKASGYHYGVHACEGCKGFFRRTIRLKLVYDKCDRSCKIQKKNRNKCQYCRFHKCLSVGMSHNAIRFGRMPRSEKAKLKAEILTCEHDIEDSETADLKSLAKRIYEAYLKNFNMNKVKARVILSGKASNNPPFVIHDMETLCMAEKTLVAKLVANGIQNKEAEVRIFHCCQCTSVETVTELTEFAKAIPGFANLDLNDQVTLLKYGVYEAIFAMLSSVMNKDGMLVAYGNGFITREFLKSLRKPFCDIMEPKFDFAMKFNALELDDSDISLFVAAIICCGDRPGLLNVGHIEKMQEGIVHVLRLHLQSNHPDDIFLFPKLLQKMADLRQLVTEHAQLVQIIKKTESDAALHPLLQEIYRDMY

Cytochrome P450 3A4, sequence (P08684 whole entry): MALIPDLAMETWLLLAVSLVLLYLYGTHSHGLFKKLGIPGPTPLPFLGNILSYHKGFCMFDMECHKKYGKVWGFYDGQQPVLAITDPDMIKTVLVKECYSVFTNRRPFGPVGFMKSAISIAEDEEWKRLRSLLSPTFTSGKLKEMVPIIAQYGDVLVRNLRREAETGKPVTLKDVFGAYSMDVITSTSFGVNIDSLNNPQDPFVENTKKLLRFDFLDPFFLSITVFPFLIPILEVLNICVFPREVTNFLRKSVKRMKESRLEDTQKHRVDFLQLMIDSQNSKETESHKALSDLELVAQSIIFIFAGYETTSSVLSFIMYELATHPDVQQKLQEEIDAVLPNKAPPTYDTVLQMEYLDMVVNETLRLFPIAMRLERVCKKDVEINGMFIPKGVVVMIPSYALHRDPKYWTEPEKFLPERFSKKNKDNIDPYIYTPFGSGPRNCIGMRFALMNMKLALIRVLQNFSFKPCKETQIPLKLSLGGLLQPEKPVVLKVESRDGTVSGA
Cytochrome P450 2D6, sequence (P10635 whole entry): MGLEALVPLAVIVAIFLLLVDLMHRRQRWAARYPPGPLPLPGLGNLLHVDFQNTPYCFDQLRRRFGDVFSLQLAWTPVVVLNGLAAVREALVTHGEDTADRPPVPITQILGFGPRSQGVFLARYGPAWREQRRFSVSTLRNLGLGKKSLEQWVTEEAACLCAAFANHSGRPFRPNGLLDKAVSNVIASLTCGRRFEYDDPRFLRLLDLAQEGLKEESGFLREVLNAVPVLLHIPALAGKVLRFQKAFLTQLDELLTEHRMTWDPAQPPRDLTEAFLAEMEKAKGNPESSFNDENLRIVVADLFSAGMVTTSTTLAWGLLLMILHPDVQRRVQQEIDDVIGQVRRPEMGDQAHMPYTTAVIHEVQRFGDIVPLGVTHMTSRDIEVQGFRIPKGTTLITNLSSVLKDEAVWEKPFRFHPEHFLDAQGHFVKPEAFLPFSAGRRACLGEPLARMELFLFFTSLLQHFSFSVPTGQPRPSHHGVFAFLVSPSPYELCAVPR

Row | SMILES | EC50 [1] [µM] | IC50 [2] [µM] | other results
1 | CCc1nc2ccn(Cc3cccnc3)c(=O)c2n1[C@H]1CCc2cc(-c3ccccc3-c3nnn[nH]3)ccc21 | 3.64 | 0.0452 | –
2 | CCc1nc2ccn(Cc3ccncc3)c(=O)c2n1[C@H]1CCc2cc(-c3ccccc3-c3nnn[nH]3)ccc21 | > 25 | 0.25 | –
3 | CCc1nc2ccn(Cc3c(C)noc3C)c(=O)c2n1[C@H]1CCc2cc(-c3ccccc3-c3nnn[nH]3)ccc21 | 4.47 | 0.0634 | –
4 | CCc1nc2cc[nH]c(=O)c2n1[C@H]1CCc2cc(-c3ccccc3-c3nnn[nH]3)ccc21 | > 100 | 0.593 | –
5 | CCc1nc2ccn(CC(=O)N(C)C)c(=O)c2n1[C@H]1CCc2cc(-c3ccccc3-c3nnn[nH]3)ccc21 | > 100 | 0.0244 | –
6 | CCc1nc2ccn(CC(=O)OCc3ccccc3)c(=O)c2n1[C@H]1CCc2cc(-c3ccccc3-c3nnn[nH]3)ccc21 | 1.25 | 0.0198 | –
7 | CCc1nc2ccn(CC(=O)O)c(=O)c2n1[C@H]1CCc2cc(-c3ccccc3-c3nnn[nH]3)ccc21 | > 100 | 0.348 | –
8 | CCc1nc2ccn(CC(C)C)c(=O)c2n1[C@H]1CCc2cc(-c3ccccc3-c3nnn[nH]3)ccc21 | 1.71 | 0.0194 | –
9 | CCc1nc2ccn(CC3CCCCC3)c(=O)c2n1[C@H]1CCc2cc(-c3ccccc3-c3nnn[nH]3)ccc21 | 0.942 | 0.041 | –
10 | CCc1nc2ccn(Cc3ccccc3C#N)c(=O)c2n1[C@H]1CCc2cc(-c3ccccc3-c3nnn[nH]3)ccc21 | 0.685 | 0.0135 | inhibition (INH) (Cytochrome P450 2D6): 11%; solubility kinetic [6]: 11.7 µM (≈ 6.3 µg/mL); inhibition (INH) (Cytochrome P450 3A4): 31%; Papp [3]: 10.7 ×10⁻⁶ cm/s; logD [4]: 1.7; microsomal CLint [5]: 14 µL/min/mg
11 | CCc1nc2ccn(Cc3cccc(C(F)(F)F)c3)c(=O)c2n1[C@H]1CCc2cc(-c3ccccc3-c3nnn[nH]3)ccc21 | 0.449 | 0.0816 | –
12 | CCc1nc2ccn(Cc3ccccn3)c(=O)c2n1[C@H]1CCc2cc(-c3ccccc3-c3nnn[nH]3)ccc21 | 3.58 | 0.0638 | –

Compounds with a lower EC50 [1], results first:

Row | EC50 [1] [µM] | IC50 [2] [µM] | SMILES | other results
13 | 0.295 | 0.007 | CCc1nc2c(C)cn(Cc3ccccc3C#N)c(=O)c2n1[C@H]1CCc2cc(-c3ccccc3-c3nnn[nH]3)ccc21 | inhibition (INH) (Cytochrome P450 2D6): 0%; solubility kinetic [6]: 5.2 µM (≈ 2.87 µg/mL); inhibition (INH) (Cytochrome P450 3A4): 0%; Papp [3]: 19 ×10⁻⁶ cm/s; logD [4]: 2.5; microsomal CLint [5]: 20.7 µL/min/mg
14 | 0.292 | 0.0127 | CCc1nc2ccn(Cc3ccccc3)c(=O)c2n1[C@H]1CCc2cc(-c3ccccc3-c3nnn[nH]3)ccc21 | EC50 [7]: > 50 µM; EC50 [8]: > 50 µM
15 | 0.187 | 0.0941 | CCc1nc2ccn(Cc3ccccc3C(F)(F)F)c(=O)c2n1[C@H]1CCc2cc(-c3ccccc3-c3nnn[nH]3)ccc21 | –
16 | 0.159 | 0.0674 | CCc1nc2ccn(Cc3cccc(F)c3)c(=O)c2n1[C@H]1CCc2cc(-c3ccccc3-c3nnn[nH]3)ccc21 | –
17 | 0.108 | 0.0369 | CCc1nc2ccn(Cc3cccc(C)c3)c(=O)c2n1[C@H]1CCc2cc(-c3ccccc3-c3nnn[nH]3)ccc21 | –
18 | 0.103 | 0.0377 | CCc1nc2ccn(Cc3ccccc3F)c(=O)c2n1[C@H]1CCc2cc(-c3ccccc3-c3nnn[nH]3)ccc21 | –
19 | 0.097 | 0.0051 | CCc1nc2ccn(Cc3ccccc3C)c(=O)c2n1[C@H]1CCc2cc(-c3ccccc3-c3nnn[nH]3)ccc21 | inhibition (INH) (Cytochrome P450 2D6): 6%; solubility kinetic [6]: 3.5 µM (≈ 1.85 µg/mL); inhibition (INH) (Cytochrome P450 3A4): 14%; Papp [3]: 3.6 ×10⁻⁶ cm/s; logD [4]: 2.6; microsomal CLint [5]: 32.6 µL/min/mg
20 | 0.042 | 0.0068 | CCc1nc2c(C)cn(Cc3ccccc3C)c(=O)c2n1[C@H]1CCc2cc(-c3ccccc3-c3nnn[nH]3)ccc21 | inhibition (INH) (Cytochrome P450 2D6): 4.5%; inhibition (INH) (Cytochrome P450 3A4): 3.5%; Papp [3]: 7 ×10⁻⁶ cm/s; logD [4]: 2.9; microsomal CLint [5]: 37.5 µL/min/mg
21 | 0.02 | 0.0293 | CCc1nc2ccn(Cc3ccccc3OC(F)(F)F)c(=O)c2n1[C@H]1CCc2cc(-c3ccccc3-c3nnn[nH]3)ccc21 | –
